Results published in patent publication US20260159520A1, “HETEROBIFUNCTIONAL COMPOUNDS AND METHODS OF TREATING DISEASE” (Halda Therapeutics OpCo, Inc., priority 2022, published 2026).

Tests used:
[1] = molecular target: T1, CDK9 (Homo sapiens, UniProt P50750); assay: KdELECT binding assay, CDK9; conditions: CDK9, Table 7
T1 construct: made in house; host or cells: E. coli BL21-derived host (T7 phage) or HEK-293 ('BEK-293' [sic])
Procedure: Compounds were tested using a KdELECT. Kinase-tagged T7 phage strains were prepared in an E. coli host derived from the BL21 strain. E. coli were grown to log-phase and infected with T7 phage and incubated with shaking at 32° C. until lysis. The lysates were centrifuged and filtered to remove cell debris. The remaining kinases were produced in BEK-293 cells and subsequently tagged with DNA for qPCR detection. Streptavidin-coated magnetic beads were treated with biotinylated small molecule ligands for 30 minutes at room temperature to generate affinity resins for kinase assays. The liganded beads were blocked with excess biotin and washed with blocking buffer (SeaBlock (Pierce), 1% BSA, 0.05% Tween 20, 1 mM DTT) to remove unbound ligand and to reduce non-specific binding. Binding reactions were assembled by combining kinases, liganded affinity beads, and test compounds in 1× binding buffer (20% SeaBlock, 0.17×PBS, 0.05% Tween 20, 6 mM DTT). Test compounds were prepared as 111× stocks in 100% DMSO. Kd values were determined using an 11-point 3-fold compound dilution series with three DMSO control points. All compounds for Kd measurements are distributed by acoustic transfer (non-contact dispensing) in 100% DMSO. The compounds were then diluted directly into the assays such that the final concentration of DMSO was 0.9%. All reactions performed in polypropylene 384-well plate. Each was a final volume of 0.02 mL. The assay plates were incubated at room temperature with shaking for 1 hour and the affinity beads were washed with wash buffer (lx PBS, 0.05% Tween 20). The beads were then re-suspended in elution buffer (lx PBS, 0.05% Tween 20, 0.5 μM nonbiotinylated affinity ligand) and incubated at room temperature with shaking for 30 minutes. The kinase concentration in the eluates was measured by qPCR.

[2] = tested on: T-Rex 293 cell line SC3 cells having increased expression of androgen receptor protein; assay: Cellular growth inhibition, T-Rex 293 SC3 cells with doxycycline (increased androgen receptor expression); type: cell-based; conditions: with 10 ng/mL doxycycline (increased androgen receptor), 72 hours, CellTiter-Glo 2.0
Outline: (§1)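 Growth inhibition is measured in an inducible AR-expressing T-Rex 293 clone, SC3, cultured with or without 10 ng/mL doxycycline in hormone-depleted medium. Test compounds are applied for 72 hours. GI50 values derive from CellTiter-Glo 2.0 signal fitted by four-parameter regression.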

[3] = tested on: T-Rex 293 cell line SC3 cells lacking increased expression of androgen receptor protein; assay: Cellular growth inhibition, T-Rex 293 SC3 cells without doxycycline; type: cell-based; conditions: not exposed to doxycycline, 72 hours, CellTiter-Glo 2.0
Outline: as §1

[4] = tested on: T47D cells; assay: Cellular growth inhibition assay for T47D cells; type: cell-based; conditions: Homo sapiens, 72 hours, CellTiter-Glo 2.0
Procedure: T47D cells were purchased from American Type Cell Culture (ATCC Cat #HTB-133) and then seeded on poly-D-lysine coated, black clear-bottom 384-well plates at 3000/well in 25 μL Dulbecco's Modified Eagle Medium (DMEM) supplemented with 10% w/w Fetal bovine serum (FBS), 0.2 units/mL recombinant human insulin (Gibco Cat #12585014), and 1% w/w Pen-Strep. Pen-Strep is a commercially available mixture of penicillin G and streptomycin, which is used in mammalian cell culture media to prevent bacterial contamination. Dulbecco's Modified Eagle Medium (DMEM) supplemented with 10% w/w fetal bovine serum (FBS), 0.2 units/mL recombinant human insulin, and 1% w/w Pen-Strep is herein referred to as Treatment Medium. Following seeding of cells in the plates, the plates were spun at 300×g for 30 seconds, then equilibrated to room temperature for 30 minutes, and then deposited in a humidified tissue culture incubator maintained at 37° C. with 5% CO2.
At 24 hours after seeding of the cells, dilutions of test compound were prepared in DMSO and dissolved in Treatment Medium, to achieve a final DMSO concentration of 0.5% w/w, thereby providing the Test Compound Solution. A 25 μL aliquot of the Test Compound Solution was added to cells in the well plates. An equal volume of a solution containing DMSO and Treatment Medium was used as a negative control. Following treatment of cells with Test Compound Solution or said equal volume of a solution containing DMSO and Treatment Medium, the plates were spun at 300×g for 30 seconds, and then left in an incubator for 72 hours.
At the end of the treatment duration, cell viability was quantified with CellTiter-Glo 2.0 reagent (Promega Cat #G9243). For this purpose, plates were equilibrated to room temperature for 30 minutes, and then 25 μL of CellTiter-Glo 2.0 reagent was added to cells in the plate wells. Plates were then agitated on a shaker for two minutes at 500 rpm and subsequently incubated at room temperature for 10 minutes. Following incubation, the plates were spun at 3000×g for 30 seconds, then sealed with an optical adhesive cover, and luminescence readings were measured with an EnVision Plate Reader (Perkin Elmer).
Data was normalized using zero luminescence for baseline. A four-parameter non-linear regression curve fit was applied to dose-response data in GraphPad Prism data analysis software to determine the half-maximal growth inhibitory concentration (GI50) for each test compound.

[5] = tested on: VCaP cells; assay: Cellular growth inhibition assay for VCaP cells; type: cell-based; conditions: Homo sapiens, 72 hours, CellTiter-Glo 2.0

T1 sequence (P50750 whole entry): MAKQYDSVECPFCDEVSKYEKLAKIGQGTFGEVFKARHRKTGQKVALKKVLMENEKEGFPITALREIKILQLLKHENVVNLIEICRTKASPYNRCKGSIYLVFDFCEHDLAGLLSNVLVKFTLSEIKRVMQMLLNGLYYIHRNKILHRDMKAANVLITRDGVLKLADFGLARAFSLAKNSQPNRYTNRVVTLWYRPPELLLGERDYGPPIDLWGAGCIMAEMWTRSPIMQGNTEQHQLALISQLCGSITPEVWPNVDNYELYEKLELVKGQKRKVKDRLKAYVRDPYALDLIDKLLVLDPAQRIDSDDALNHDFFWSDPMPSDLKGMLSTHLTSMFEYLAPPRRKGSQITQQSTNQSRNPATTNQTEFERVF

Structure (SMILES) | Kd [1] [nM] | GI50 [2] [nM] | GI50 [3] [nM] | GI50 [4] [nM] | GI50 [5] [nM]
CC1(C)[C@H](NC(=O)c2cnc(N3CCC(OCCOCCOCCOCCOCCNS(=O)(=O)c4ccc(Nc5ncc(Br)c(Nc6cccc(F)c6C(N)=O)n5)cc4)CC3)nc2)C(C)(C)[C@H]1Oc1ccc(C#N)c(Cl)c1 [Compound I-15] | > 2500 | > 3500 | > 3500 | 500 to 1500 | 
CC1(C)[C@H](NC(=O)c2cnc(N3CCC(OCCCN4CCN(CCCNS(=O)(=O)c5ccc(Nc6ncc(Br)c(Nc7cccc(F)c7C(N)=O)n6)cc5)CC4)CC3)nc2)C(C)(C)[C@H]1Oc1ccc(C#N)c(Cl)c1 [Compound I-17] | > 2500 | > 3500 | > 3500 | 1500 to 3000 | 
CN(CCOCCOCCOCCOCCNS(=O)(=O)c1ccc(Nc2ncc(Br)c(Nc3cccc(F)c3C(N)=O)n2)cc1)c1ncc(C(=O)N[C@H]2C(C)(C)[C@H](Oc3ccc(C#N)c(Cl)c3)C2(C)C)cn1 [Compound I-20] | > 2500 | > 3500 | > 3500 | < 500 | 
CN(CCCN1CCN(CCCNS(=O)(=O)c2ccc(Nc3ncc(Br)c(Nc4cccc(F)c4C(N)=O)n3)cc2)CC1)c1ncc(C(=O)N[C@H]2C(C)(C)[C@H](Oc3ccc(C#N)c(Cl)c3)C2(C)C)cn1 [Compound I-22, 2-((3-(4-(3-((4-((5-bromo-4-((2-carbamoyl-3-fluorophenyl)amino)pyrimidin-2-yl)amino)phenyl)sulfonamido)propyl)piperazin-1-yl)propyl) (methyl)amino)-N-((1r,3r)-3-(3-chloro-4-cyanophenoxy)-2,2,4,4-tetramethylcyclobutyl) pyrimidine-5-carboxamide] | 500 to 2500 | 1000 to 3500 | > 3500 | < 500 | 
CCc1cnn2c(NCc3ccc(N(C)CC4CCN(CC5CCN(c6ncc(C(=O)N[C@H]7C(C)(C)[C@H](Oc8ccc(C#N)c(Cl)c8)C7(C)C)cn6)CC5)CC4)nc3)cc(N3CCCC[C@H]3CCO)nc12 [Compound I-59, N-((1r,3r)-3-(3-chloro-4-cyanophenoxy)-2,2,4,4-tetramethylcyclobutyl)-2-(4-((4-(((5-(((3-ethyl-5-((S)-2-(2-hydroxyethyl)piperidin-1-yl)pyrazolo[1,5-a]pyrimidin-7-yl)amino)methyl)pyridin-2-yl)(methyl)amino)methyl)piperidin-1-yl)methyl)piperidin-1-yl)pyrimidine-5-carboxamide] | < 50 | < 100 | 100 to 1000 | < 500 | 100 to 1000
CCc1cnn2c(NCc3ccc(OCCOCCN4CC5CN(c6ncc(C(=O)N[C@H]7C(C)(C)[C@H](Oc8ccc(C#N)c(Cl)c8)C7(C)C)cn6)CC5C4)nc3)cc(N3CCCC[C@H]3CCO)nc12 (some centres unmarked) [Compound I-62] | 50 to 500 | < 100 | 100 to 1000 |  | 100 to 1000
CCc1cnn2c(NCc3ccc(OCCOC4CCN(C5CN(c6ncc(C(=O)N[C@H]7C(C)(C)[C@H](Oc8ccc(C#N)c(Cl)c8)C7(C)C)cn6)C5)CC4)nc3)cc(N3CCCC[C@H]3CCO)nc12 [Compound I-63] | < 50 | < 100 | < 100 |  | < 100
COc1cc(F)ccc1-c1ccnc2[nH]c(C3CCN(CCOCCOC4CCN(c5ncc(C(=O)N[C@H]6C(C)(C)[C@H](Oc7ccc(C#N)c(Cl)c7)C6(C)C)cn5)CC4)CC3)cc12 [Compound I-69] | < 50 | 100 to 1000 | 100 to 1000 | 1500 to 3000 | 100 to 1000
COc1cc(F)ccc1-c1ccnc2[nH]c(C3CCN(CCOCCOCCOCCOC4CCN(c5ncc(C(=O)N[C@H]6C(C)(C)[C@H](Oc7ccc(C#N)c(Cl)c7)C6(C)C)cn5)CC4)CC3)cc12 [Compound I-70] | 50 to 500 | 1000 to 3500 | 1000 to 3500 | 1500 to 3000 | 100 to 1000
CC(C)n1cc(-c2ccnc3[nH]c(C4CCN(CCOCCOC5CCN(c6ncc(C(=O)N[C@H]7C(C)(C)[C@H](Oc8ccc(C#N)c(Cl)c8)C7(C)C)cn6)CC5)CC4)cc23)ccc1=O [Compound I-76] | < 50 | 100 to 1000 | 100 to 1000 | < 500 | < 100
CC(C)n1cc(-c2ccnc3[nH]c(C4CCN(CCOCCOCCOCCOC5CCN(c6ncc(C(=O)N[C@H]7C(C)(C)[C@H](Oc8ccc(C#N)c(Cl)c8)C7(C)C)cn6)CC5)CC4)cc23)ccc1=O [Compound I-78] | < 50 | < 100 | 100 to 1000 | 500 to 1500 | < 100
CC1(C)[C@H](NC(=O)c2cnc(N3CCC(OCCN4C/C=C/CCOc5cccc(c5)-c5ccnc(n5)Nc5cccc(c5)C4)CC3)nc2)C(C)(C)[C@H]1Oc1ccc(C#N)c(Cl)c1 [Compound I-87, N-[3-(3-chloro-4-cyano-phenoxy)-2,2,4,4-tetramethyl-cyclobutyl]-2-[4-[2-[(16E)-20-oxa-5,7,14,27-tetrazatetracyclo [19.3.1.12,6.18,12]heptacosa-1(24),2(27),3,5,8(26),9,11,16, 21(25),22-decaen-14-yl]ethoxy]-1-piperidyl]pyrimidine-5-carboxamide] | 500 to 2500 | 100 to 1000 | > 3500 | 500 to 1500 | > 3500
CC1(C)[C@H](NC(=O)c2cnc(N3CCC(OCCOCCOCCOCCN4C/C=C/CCOc5cccc(c5)-c5ccnc(n5)Nc5cccc(c5)C4)CC3)nc2)C(C)(C)[C@H]1Oc1ccc(C#N)c(Cl)c1 [Compound I-90] | 500 to 2500 | 100 to 1000 | > 3500 | < 500 | 100 to 1000
